Source: US20240254138A1, “TRICYCLIC PYRIMIDINES AS CYCLIN-DEPENDENT KINASE 7 (CDK7) INHIBITORS” (JANSSEN PHARMACEUTICA NV, priority 2021, published 2024)
Where two headings read alike, the source gives them in different places.

Assays:
[1] = test system: RNA Polymerase II Serine 5 phosphorylation (Rpb1 CTD, downstream substrate of CDK7) in A549 cells; assay: Imaging-based cellular RNA PolII Ser5 phosphorylation assay in A549 cells; type: cell-based, human; settings: wild-type CDK7, RNA PolII Ser5 phosphorylation, averaged over all measurements; for IC50: Homo sapiens, A549, A549 cells, read-out: CDK7_A549 Wild-type CDK7 (pIC50) (converted)
Source text: (§1) To evaluate inhibition of CDK7 kinase activity, a 384-well automated imaging assay was used. This assay detects Serine 5 phosphorylation on a unique heptapeptide sequence in the C-terminal domain of Rpb1 subunit of RNA polymerase II, the downstream substrate of CDK7. This heptapeptide sequence is repeated up to 52 times in the CTD of Rpb1.
(§2) A549 adenocarcinoma human alveolar basal epithelial cells (ATCC, CCL-185), rabbit Phospho-Rpb1 CTD (Ser5) antibody (D9N51 (Cell Signaling Technology)), DMEM (Sigma), Fetal Bovine Serum (Biowest), L-glutamine (Sigma), Penicillin/Streptomycin (Life Technologies), Sodium Pyruvate (Sigma), Hepes (Sigma), poly-D-lysine coated μclear 384 black plates (Greiner), formaldehyde (PolySciences), D-PBS (Sigma), Methanol (Sigma), Alexa Fluor 488 goat anti rabbit IgG secondary antibody (Life Technologies), HCS CellMask™ Deep Red stain (Life Technologies), Hoechst 33258 (Invitrogen).
(§3) RNA Polymerase II Serine 5 phosphorylation was detected using a specific rabbit Phospho-Rpb1 CTD (Ser5) antibody. A549 adenocarcinoma human alveolar basal epithelial cells were seeded in 20 μl medium (DMEM supplemented with 1% Fetal Bovine Serum (heat inactivated 30′ 56° C.), 2 mM L-glutamine, 50 U/ml penicillin 50 μg/ml streptomycin, 1 mM sodium pyruvate and 50 mM hepes) at 1000 cells/well and cultured in poly-D-lysine coated μclear 384 black plates for 20 hours at 37° C. and 5% CO2.
(§4) After incubation cells were challenged with compound for 3 hours at 37° C. and 5% CO2. DMSO was used as high control and as low control 10 μM of the following reference compound was used:
(§5) 40 nl of test compounds and controls were spotted in cell plates using Echo Liquid Handler (Echo 550, Labcyte). Incubation was followed by 20 minutes fixation with 20 μl 10% formaldehyde at room temperature. Medium/formaldehyde solution was removed, plates were washed 3 times with 30 μl D-PBS (w/o Ca^2+ and Ma^2+) and permeabilization was done by adding 20 μl ice cold methanol for 20 minutes. Cells were washed again 3 times with 30 μl D-PBS and 20 μl blocking buffer (25 ml fetal bovine serum in 500 ml D-PBS) was added for 1 hour.
(§6) After removing blocking buffer 20 μl 1/1000 primary antibody rabbit Phospho-Rpb1 CTD (Ser5) antibody was added which binds to the phosphorylated Serine5 of the heptapeptide sequences in the CTD of Rpb1. Primary antibody was removed, and plates were washed 3 times with 30 μl D-PBS followed by addition of 20 μl 1/2000 Alexa Fluor 488 goat anti rabbit IgG secondary antibody for final detection of Phospho-Rpb1 CTD (Ser5) together with 1/5000 HCS CellMask™ Deep Red stain for membrane staining and 1/5000 Hoechst 33258 for nucleus staining. Last, plates were washed 2 times with 30 μl D-PBS and wells were filled with 40 μL D-PBS, plates were sealed (Thermowell sealing tape) and stored at 4° C. until reading. Plates were read with Opera Phenix (Perkin Elmer) with 10× air objective. Data were calculated and analyzed in Phaedra.
(§7) IC50 values were calculated using the following formula: […]
(§8) Average value of all HC's and all LC's are used for normalizations.
(§9) A best-fit curve is fitted by a minimum sum of squares method to the plot of % Control vs. compound concentration. From this an IC50 value can be obtained. An estimate of the slope of the plot in terms of the Hill coefficient is also obtained.

[2] = test system: RNA Polymerase II Serine 5 phosphorylation in A549 cells overexpressing CDK7-mutant (C312S); assay: Imaging-based cellular RNA PolII Ser5 phosphorylation assay in A549 cells overexpressing CDK7-mutant (C312S); type: cell-based, human; settings: RNA PolII Ser5 phosphorylation, averaged over all measurements; for IC50: Homo sapiens, A549, A549 cells overexpressing CDK7-mutant (C312S), read-out: CDK7_A549 mutant hCDK7(pIC50) (converted); for CDK7_A549 mutant hCDK7(pIC50): A549 cells overexpressing CDK7-mutant (C312S)
Source text: as §1, §2, §3, §4, §5, §6, §7, §8, §9
In parallel this assay was performed in A549 cells overexpressing CDK7-mutant (C312S) to evaluate the effect of the covalent bond on potency and to screen for potential off-target effects. Mutation of Cysteine to Serine (C312S), a less nucleophilic amino acid, prevents CDK7 inhibitors from covalently binding to CDK7 and from inhibiting CDK7 activity in an irreversible manner. A stably transduced A549 cell pool was generated that overexpresses CDK7 mutant (C312S), but also expresses endogenous CDK7-WT. Covalent binders targeting the cysteine at position 312 will show a shift in potency in A549 cells overexpressing mutant C312S CDK7.

[3] = target: CDK7/cyclinH/MAT1 trimeric complex (Homo sapiens, UniProt P50613); assay: In vitro CDK7 assay, potency of irreversible covalent inhibitors (kinact/KI), coupled PK/LDH ADP readout at 340 nm
CDK7/cyclinH/MAT1 trimeric complex, sequence (P50613 whole entry): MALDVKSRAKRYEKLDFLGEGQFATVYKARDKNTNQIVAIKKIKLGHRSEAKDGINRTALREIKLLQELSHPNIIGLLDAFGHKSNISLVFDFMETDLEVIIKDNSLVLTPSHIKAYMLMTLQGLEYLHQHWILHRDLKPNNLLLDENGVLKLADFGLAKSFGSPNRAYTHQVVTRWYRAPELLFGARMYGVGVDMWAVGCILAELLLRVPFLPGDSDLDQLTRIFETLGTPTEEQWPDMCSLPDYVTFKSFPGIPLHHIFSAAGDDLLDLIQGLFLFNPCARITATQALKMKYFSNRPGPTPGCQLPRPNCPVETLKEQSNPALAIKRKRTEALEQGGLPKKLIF
CDK7/cyclinH/MAT1 trimeric complex, sequence (P51946 whole entry partner): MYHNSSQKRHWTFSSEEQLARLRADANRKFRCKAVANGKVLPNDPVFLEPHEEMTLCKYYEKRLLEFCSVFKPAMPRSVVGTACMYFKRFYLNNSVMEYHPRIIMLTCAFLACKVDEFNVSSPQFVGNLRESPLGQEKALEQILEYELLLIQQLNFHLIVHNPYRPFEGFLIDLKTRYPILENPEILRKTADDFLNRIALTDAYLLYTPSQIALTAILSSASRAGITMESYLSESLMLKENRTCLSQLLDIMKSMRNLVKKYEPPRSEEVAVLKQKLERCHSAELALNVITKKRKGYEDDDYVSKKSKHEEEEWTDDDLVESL
CDK7/cyclinH/MAT1 trimeric complex, sequence (P51948 whole entry partner): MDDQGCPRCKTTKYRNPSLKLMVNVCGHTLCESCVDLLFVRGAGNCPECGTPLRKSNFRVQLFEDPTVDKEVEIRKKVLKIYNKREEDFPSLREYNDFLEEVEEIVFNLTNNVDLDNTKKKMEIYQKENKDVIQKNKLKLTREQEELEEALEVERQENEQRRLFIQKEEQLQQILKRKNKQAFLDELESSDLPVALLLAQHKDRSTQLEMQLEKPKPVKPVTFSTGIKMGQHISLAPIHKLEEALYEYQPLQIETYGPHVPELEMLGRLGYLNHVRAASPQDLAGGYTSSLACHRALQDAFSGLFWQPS

[4] = CDK7 (20 nM enz.) (KI, μM), 20 nM enzyme
[5] = read-out: CDK7 (20 nM enz.) (kinact, s^−1), 20 nM enzyme
[6] = read-out: CDK7 (20 nM enz.) (kinact/KI, M^−1*s^−1), 20 nM enzyme
[7] = read-out: CDK7 (20 nM enz.) (kobs/[I], M^−1*s^−1), 20 nM enzyme

Structure (SMILES) | IC50 [1] [nM] | IC50 [2] [nM] | Ki [3, 4] [µM] | kinact [3, 5] [s⁻¹] | kinact/KI [3, 6] [M⁻¹ s⁻¹] | also measured
C=CC(=O)N1CCC(Cc2ccc3c(c2)Nc2nccc(-c4cncc(C)c4)c2CO3)C1 (stereo not drawn) [Compound 5] | > 10000 | > 10000 | – | – | – | –
C=CC(=O)N1CC[C@H](N2CCC(c3cc4c(c(C)n3)OCc3c(-c5cnn(C)c5)ccnc3N4)CC2)C1 (single isomer, unassigned) [Compound 185] | 81.3 | > 10000 | – | – | – | –
C=CC(=O)N1CCC(N2CCC(c3cc4c(c(C)n3)OCc3c(N5CCOCC5)ccnc3N4)CC2)CC1 [compound 324] | – | – | 0.0237 | 5.03e-05 | 2120 | –
C=CC(=O)N1CCC(N2CC(c3cc4c(c(C)n3)O[C@@H](C)c3c(N5CCOCC5)ccnc3N4)C2)CC1 (single isomer, unassigned) [Compound 430] | 933 | > 10000 | – | – | – | –
C=CC(=O)N1CC[C@@H](N2CC(c3cc4c(c(C)n3)O[C@@H](C)c3c(C5CCOCC5)ccnc3N4)C2)C1 (single isomer, unassigned) [Compound 334] | 5250 | > 10000 | – | – | – | –
C=CC(=O)N1CCC(N2CC[C@H](O)[C@@H](c3ccc4c(c3)OCc3c(N5CCOCC5)ccnc3N4)C2)CC1 (mixture of isomers) [Compound 157] | > 10000 | > 10000 | – | – | – | –
C=CC(=O)N1CC(N2CCC(c3cc4c(c(C)n3)O[C@H](C)c3c(C5CCOCC5)ccnc3N4)CC2)C1 (single isomer, unassigned) [compound 429] | – | – | 0.0672 | 9.76e-05 | 1450 | –
C=CC(=O)N1CC(N2CCN(C)[C@H](c3ccc4c(c3)Nc3nccc(N5CCOCC5)c3CO4)C2)C1 (single isomer, unassigned) [Compound 142] | 1450 | > 10000 | – | – | – | –
C=CC(=O)N1CC[C@H](N2CC(c3cc4c(c(C)n3)O[C@@H](C)c3c(C5CCOCC5)ccnc3N4)C2)C1 (single isomer, unassigned) [Compound 337] | > 5010 | > 10000 | – | – | – | –
CC#CC(=O)N1CCC(n2cc(-c3cc(C)c4c(c3)Nc3nccc(N5CCOCC5)c3CO4)cn2)CC1 [Compound 381] | 372 | 6920 | – | – | – | –
C=CC(=O)N1CC(N2CCC(c3ccc4c(c3)Nc3nccc(C5CCOCC5)c3CO4)CC2)C1 [Compound 254] | – | – | – | – | – | CDK7_A549 Wild-type CDK7 (pIC50) ([1]; A549 cells): 6.97; CDK7_A549 mutant hCDK7(pIC50) [2]: <5
C=CC(=O)N1CC[C@@H](N2CC(c3cc4c(c(C)n3)OCc3c(N5CCOCC5)ccnc3N4)C2)C1 (single isomer, unassigned) [compound 179] | – | – | 0.0606 | 5.08e-05 | 839 | –
C=CC(=O)N1CC(N2CC(c3cc4c(c(P(C)(C)=O)n3)OCc3c(N5CCOCC5)ccnc3N4)C2)C1 [compound 331] | – | – | 0.204 | 6.25e-05 | 306 | –
CC#CC(=O)N1CC(N2CC[C@H](c3cc4c(c(C)n3)OCc3c(N5CCOCC5)ccnc3N4)N(C)CC2)C1 (single isomer, unassigned) [Compound 448] | 209 | 8320 | – | – | – | –
CC#CC(=O)N1CCC(n2ccc(-c3ccc4c(c3)OCc3c(N5CCOCC5)ccnc3N4)cc2=O)CC1 [Compound 412] | 9770 | > 10000 | – | – | – | –
C=CC(=O)N1CC(c2nc(C)c(-c3cc4c(c(C)n3)OCc3c(N5CCOCC5)ccnc3N4)c(C)n2)C1 [compound 277] | – | – | 0.156 | 4.48e-05 | 287 | –
C=CC(=O)N1CC(N2CC(c3cc4c(cn3)O[C@@H](C)c3c(-c5cnn(C)c5)ccnc3N4)C2)C1 (single isomer, unassigned) [compound 300] | – | – | 2.63 | 3.59e-05 | 13.7 | –
C=CC(=O)N1CC(N2CCC(c3cc4c(cn3)O[C@H](C)c3c(N5CCOCC5)ccnc3N4)CC2)C1 (single isomer, unassigned) [compound 171] | – | – | 0.0278 | 5.15e-05 | 1850 | –
C=CC(=O)N1CCC(n2ccc(-c3cc4c(c(C)n3)OCc3c(N5CCOCC5)ccnc3N4)cc2=O)CC1 [compound 419] | – | – | 0.273 | 3.95e-05 | 144 | –
C=CC(=O)N1CC(N2CCC(c3ccc4c(c3)Nc3nccc(N5CCOCC5)c3CO4)C(C)(C)C2)C1 (stereo not drawn) [Compound 41] | – | – | – | – | – | Ki ([3]; CDK7 (KI(μM)), […], 1 mM ATP, room temperature, averaged values over all measurements): 0.083 µM; kinact ([3]; read-out: CDK7 (kinact, s^−1), kinact = maximal rate of inactivation, 1 mM ATP, room temperature, averaged values over all measurements): 8.37e-05 s⁻¹; kinact/KI ([3]; read-out: CDK7 (kinact/KI, M^−1*s^−1), potency of irreversible covalent inhibitors, 1 mM ATP, room temperature, averaged values over all measurements): 1010 M⁻¹ s⁻¹
C=CC(=O)N1CC(N2CCC(c3cc(C)c4c(c3)Nc3nccc(N5CCS(=O)(=O)CC5)c3CO4)CC2)C1 [Compound 75] | – | – | – | – | – | kinact/KI [3, 7]: 1100 M⁻¹ s⁻¹
C=CC(=O)N1CC[C@@H](N2CC(c3cc4c(c(C)n3)O[C@@H](C)c3c(-c5cnn(C)c5)ccnc3N4)C2)C1 (single isomer, unassigned) [compound 420] | – | – | 7.92 | 4.55e-05 | 5.74 | –
C=CC(=O)N1CC[C@H](N2CC(c3cc4c(c(C)n3)OCc3c(N5CCOCC5)ccnc3N4)C2)C1 (single isomer, unassigned) [compound 180] | – | – | 0.0452 | 5.34e-05 | 1180 | –
C#Cc1cc2c(cc1C1CCN(C3CN(C(=O)C=C)C3)CC1)Nc1nccc(N3CCOCC3)c1[C@H](C)O2 (single isomer, unassigned) [Compound 214] | – | – | – | – | – | CDK7_A549 mutant hCDK7(pIC50) [2]: <5; kinact/KI [3, 7]: 417 M⁻¹ s⁻¹
CC#CC(=O)N1CC(N2CC(c3cc4c(c(C)n3)O[C@H](C)c3c(N5CCOCC5)ccnc3N4)C2)C1 (single isomer, unassigned) [compound 444] | – | – | 0.186 | – | – | CDK7 (20 nM enz.) (kinact, s^−1) ([3]; 20 nM enzyme): 4.506e-05 s⁻¹; CDK7 (20 nM enz.) (kinact/KI, M^−1*s^−1) ([3]; 20 nM enzyme): 242.644 M⁻¹ s⁻¹
C=CC(=O)N1CC(N2CCC(c3cc4c(cn3)O[C@@H](C)c3c(N5CCOCC5)ccnc3N4)CC2)C1 (single isomer, unassigned) [Compound 172] | – | – | 1.4 | 5.53e-05 | 39.4 | –
C=CC(=O)N1CC(N2CCC(c3cc4c(c(C)n3)OCc3c(C5CCOCC5)ccnc3N4)CC2)C1 [compound 208] | – | – | 0.168 | 4.84e-05 | 287 | –
C#CCCN(C)C/C=C/C(=O)N1CC(N2CCC(c3cc(Cl)c4c(c3)Nc3nccc(C5CCOCC5)c3CO4)CC2)C1 [compound 249] | – | – | – | – | – | kinact/KI [3, 7]: 1040 M⁻¹ s⁻¹
C=CC(=O)N1CC(N2CCC(c3ccc4c(c3)Nc3nccc(N5CCOCC5)c3[C@@H](C)O4)CC2)C1 (single isomer, unassigned) [compound 90] | – | – | – | – | – | kinact/KI [3, 7]: 1190 M⁻¹ s⁻¹
